Experimental findings from patent US20150315188A1, “COMPOUNDS AND METHODS FOR TREATMENT OF HYPERTENSION” (MEDIVATION TECHNOLOGIES, INC., priority 2012, published 2015) are described below.

Common to all, as to design: purchased Milipore (Millipore)
Assay [1] has as its target T1, Human adrenergic α2B receptor (Homo sapiens, UniProt P18089).
T1 sequence (P18089 1-450): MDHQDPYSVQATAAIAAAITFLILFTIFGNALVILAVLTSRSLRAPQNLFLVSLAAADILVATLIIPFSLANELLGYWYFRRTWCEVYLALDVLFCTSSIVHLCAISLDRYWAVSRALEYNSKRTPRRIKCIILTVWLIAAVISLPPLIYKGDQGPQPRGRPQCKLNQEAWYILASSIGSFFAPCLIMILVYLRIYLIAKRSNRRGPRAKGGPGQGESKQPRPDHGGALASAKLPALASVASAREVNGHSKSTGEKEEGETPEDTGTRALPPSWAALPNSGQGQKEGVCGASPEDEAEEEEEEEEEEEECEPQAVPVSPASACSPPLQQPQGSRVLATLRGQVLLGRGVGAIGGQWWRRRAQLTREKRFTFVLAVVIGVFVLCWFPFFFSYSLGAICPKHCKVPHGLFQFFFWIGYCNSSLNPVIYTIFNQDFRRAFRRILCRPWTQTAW
Nature of the assay: Radioligand binding, adrenergic α2B (Protocol Group B). Particulars: Protocol Group B; for Percentage inhibition of ligand binding, Adrenergic α2B (30 nM): 0.03 µM; for Percentage inhibition of ligand binding, Adrenergic α2B (10 nM): 10 nM compound, 0.01 µM; for Percentage inhibition of ligand binding, Adrenergic α2B (0.1 μM): 0.1 μM compound. The gist of the method:
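Compounds at various concentrations in 1% DMSO were tested on recombinant membranes in Tris-HCl pH 7.4 buffer containing MgCl2, CaCl2 and 0.2% BSA.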

In assay [2] the target is T2, Human adrenergic α2A receptor (Homo sapiens, UniProt P08913).
T2 sequence (P08913 1-465): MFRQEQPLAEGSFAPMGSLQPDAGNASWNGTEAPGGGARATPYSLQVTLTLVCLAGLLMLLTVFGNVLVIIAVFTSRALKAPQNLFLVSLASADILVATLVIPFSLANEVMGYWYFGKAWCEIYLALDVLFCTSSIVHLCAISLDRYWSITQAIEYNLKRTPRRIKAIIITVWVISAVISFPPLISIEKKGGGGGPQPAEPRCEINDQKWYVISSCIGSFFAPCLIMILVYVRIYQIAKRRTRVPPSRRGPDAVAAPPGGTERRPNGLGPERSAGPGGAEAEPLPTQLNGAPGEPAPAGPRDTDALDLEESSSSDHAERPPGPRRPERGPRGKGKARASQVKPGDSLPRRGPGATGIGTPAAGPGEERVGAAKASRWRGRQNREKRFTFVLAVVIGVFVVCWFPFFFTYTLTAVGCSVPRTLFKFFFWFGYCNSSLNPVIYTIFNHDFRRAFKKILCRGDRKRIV
Nature of the assay: Radioligand binding, adrenergic α2A (Protocol Group B). The settings on record: Protocol Group B; for Percentage inhibition of ligand binding, Adrenergic α2A (0.1 μM): 0.1 μM compound; for Percentage inhibition of ligand binding, Adrenergic α2A (0.3 μM): 0.3 μM compound. The gist of the method: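 Compounds (1% DMSO vehicle, various concentrations) competed against 2 nM [^3H]MK-912 on recombinant receptor membranes for 60 min at 25° C, Tris-HCl pH 7.4 buffer with Mg2+, Ca2+, BSA. Bound radioligand filtered and counted; 10 μM rauwolscine set nonspecific binding. Values: percent inhibition of specific binding or estimated Ki.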

The target of assay [3] is T3, Human adrenergic α1B receptor (Homo sapiens, UniProt P35368).
T3 sequence (P35368 1-520): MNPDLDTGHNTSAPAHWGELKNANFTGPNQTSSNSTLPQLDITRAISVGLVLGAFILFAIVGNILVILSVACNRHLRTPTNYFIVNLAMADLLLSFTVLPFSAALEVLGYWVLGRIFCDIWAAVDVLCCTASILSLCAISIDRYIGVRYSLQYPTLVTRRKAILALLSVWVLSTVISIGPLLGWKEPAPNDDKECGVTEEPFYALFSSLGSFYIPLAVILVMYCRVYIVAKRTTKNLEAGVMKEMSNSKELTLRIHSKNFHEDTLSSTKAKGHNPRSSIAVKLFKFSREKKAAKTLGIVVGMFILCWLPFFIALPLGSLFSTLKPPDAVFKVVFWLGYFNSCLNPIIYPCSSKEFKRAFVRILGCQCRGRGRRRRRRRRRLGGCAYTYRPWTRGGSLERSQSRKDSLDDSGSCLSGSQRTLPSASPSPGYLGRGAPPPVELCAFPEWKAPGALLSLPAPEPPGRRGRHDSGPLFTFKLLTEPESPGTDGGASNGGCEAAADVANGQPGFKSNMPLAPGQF
Nature of the assay: Radioligand binding, adrenergic α1B (Protocol Group B). The settings on record: Protocol Group B; for Percentage inhibition of ligand binding, Adrenergic α1B (0.1 μM): 0.1 μM compound; for Percentage inhibition of ligand binding, Adrenergic α1B (0.3 μM): 0.3 μM compound. The gist of the method:
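Values are percent inhibition of specific [3H]prazosin (0.3 nM) binding or estimated Ki, from filtration counting. Human α1B recombinant membranes, Tris-HCl pH 7.4 buffer with MgCl2 and EDTA, 60 min at 25 °C, 1% DMSO vehicle; 10 μM prazosin defined nonspecific binding.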

Consider `OC(Cn1c2c(c3cc(F)cc(F)c31)C1CCCN1CC2)c1ccncc1` (single isomer, unassigned) [144a], for which the “Percentage inhibition of ligand binding, Adrenergic α2B (30 nM)” value (shortened to “Percentage inhibition … (30 nM)”) in assay [1] (30 nM compound) came out at 73%. Also, the “Percentage inhibition of ligand binding, Adrenergic α2A (0.1 μM)” value in assay [2] turned out to be 16%. Moreover, the “Percentage inhibition of ligand binding, Adrenergic α1B (0.1 μM)” value in assay [3] is recorded as 28%.
For `OC(Cn1c2c(c3cc(F)cc(F)c31)C1CCCN1CC2)c1ccncc1` (single isomer, unassigned) [144b], in that order: 100%, 61% and 18%.
As to `OC(Cn1c2c(c3cc(F)cc(F)c31)C1CCCN1CC2)c1ccncc1` (single isomer, unassigned) [144c], the “Percentage inhibition … (30 nM)” value in assay [1] (30 nM compound) is given as −12%. In assay [2], the “Percentage inhibition of ligand binding, Adrenergic α2A (0.1 μM)” value was found to be 1%. The “Percentage inhibition of ligand binding, Adrenergic α1B (0.1 μM)” value in assay [3] is reported as −2%.
For `OC(Cn1c2c(c3cc(F)cc(F)c31)C1CCCN1CC2)c1ccncc1` (single isomer, unassigned) [144d], in that order: 1%, 1% and 1%.
As usually defined, the inhibition is the change of the read-out against control, counted positive when it falls. Turning to `Cc1cc(Br)c2c(c1)c1c(n2CC(O)c2ccncc2)CCN2CCCC12` (single isomer, unassigned) [145a], the inhibition at 0.03 µM in assay [1] (30 nM compound, read-out: Percentage inhibition of ligand binding, Adrenergic α2B (30 nM)) was 84%. Moreover, the “Percentage inhibition of ligand binding, Adrenergic α2A (0.1 μM)” value in assay [2] was determined as 39%. Besides, the “Percentage inhibition of ligand binding, Adrenergic α1B (0.1 μM)” value in assay [3] was determined as 46%.
As to `Cc1cc(Br)c2c(c1)c1c(n2CC(O)c2ccncc2)CCN2CCCC12` (single isomer, unassigned) [145b], the “Percentage inhibition … (30 nM)” value in assay [1] (30 nM compound) was 100%. For the same molecule, in assay [2], the “Percentage inhibition of ligand binding, Adrenergic α2A (0.1 μM)” value was determined as 89%. For the same molecule, in assay [3], the “Percentage inhibition of ligand binding, Adrenergic α1B (0.1 μM)” value was found to be 68%.
As to `Cc1ccc2c(c1)c1c(n2CC(C)(O)c2cccnc2)CC2CCCN2C1` (stereo not shown) [38a], in assay [1], the “Percentage inhibition of ligand binding, Adrenergic α2B (10 nM)” value (“Percentage inhibition … (10 nM)” for short) is listed as −2% and the “Percentage inhibition of ligand binding, Adrenergic α2B (0.1 μM)” value came to 30%. Moreover, the “Percentage inhibition … (30 nM)” value in assay [1] (30 nM compound) was 11%. Further, in assay [2], the “Percentage inhibition of ligand binding, Adrenergic α2A (0.1 μM)” value is given as −2% and the “Percentage inhibition of ligand binding, Adrenergic α2A (0.3 μM)” value is recorded as 11%. Besides, in assay [3], the “Percentage inhibition of ligand binding, Adrenergic α1B (0.1 μM)” value is on record as 14% and the “Percentage inhibition of ligand binding, Adrenergic α1B (0.3 μM)” value came out at 21%.
Consider `Cc1ccc2c(c1)c1c(n2CC(C)(O)c2cccnc2)CC2CCCN2C1` (stereo not shown) [38d], for which, in assay [1], the “Percentage inhibition … (10 nM)” value amounted to 1% and the “Percentage inhibition of ligand binding, Adrenergic α2B (0.1 μM)” value worked out at 22%. Besides, in assay [1] (30 nM compound), the “Percentage inhibition … (30 nM)” value turned out to be 14%. Further, in assay [2], the “Percentage inhibition of ligand binding, Adrenergic α2A (0.1 μM)” value is given as −4% and the “Percentage inhibition of ligand binding, Adrenergic α2A (0.3 μM)” value came to 3%. For the same molecule, in assay [3], the “Percentage inhibition of ligand binding, Adrenergic α1B (0.1 μM)” value is 1% and the “Percentage inhibition of ligand binding, Adrenergic α1B (0.3 μM)” value worked out at 12%.
In the case of `Cc1ccc2c(c1)c1c(n2CC(C)(O)c2cccnc2)CC2CCCN2C1` (stereo not shown) [41a], in assay [1], the “Percentage inhibition … (10 nM)” value stood at 24% and the “Percentage inhibition of ligand binding, Adrenergic α2B (0.1 μM)” value is 80%. For the same molecule, the “Percentage inhibition … (30 nM)” value in assay [1] (30 nM compound) turned out to be 51%. Further, in assay [2], the “Percentage inhibition of ligand binding, Adrenergic α2A (0.1 μM)” value is given as −7% and the “Percentage inhibition of ligand binding, Adrenergic α2A (0.3 μM)” value was found to be 6%. For the same molecule, in assay [3], the “Percentage inhibition of ligand binding, Adrenergic α1B (0.1 μM)” value is reported as −2% and the “Percentage inhibition of ligand binding, Adrenergic α1B (0.3 μM)” value is listed as −3%.
On to `Cc1ccc2c(c1)c1c(n2CC(C)(O)c2cccnc2)CC2CCCN2C1` (stereo not shown) [41b], for which, in assay [1], the “Percentage inhibition … (10 nM)” value was −14% and the “Percentage inhibition of ligand binding, Adrenergic α2B (0.1 μM)” value was −2%. For the same molecule, in assay [1] (30 nM compound), the “Percentage inhibition … (30 nM)” value is reported as −14%. In assay [2], the “Percentage inhibition of ligand binding, Adrenergic α2A (0.1 μM)” value was −16% and the “Percentage inhibition of ligand binding, Adrenergic α2A (0.3 μM)” value was −5%. Besides, in assay [3], the “Percentage inhibition of ligand binding, Adrenergic α1B (0.1 μM)” value is given as −11% and the “Percentage inhibition of ligand binding, Adrenergic α1B (0.3 μM)” value is listed as −4%.
